Data: patent US8883763B2 (Universite Joseph Fourier, priority 2010, dated 2014)

What was measured:
PP1C = assay: Affinity chromatography on immobilized compound and immunoblotting; type: binding, Xenopus laevis; conditions: Xenopus egg extracts; immunoblot anti-PP1C and anti-PP2A; PP2A only traces as in control
Experimental: Xenopus egg cytoplasmic extracts were prepared from unfertilized Xenopus laevis eggs according to the method described (Desai A et al., Methods Cell Biol. 1999; 61: pp 385-412).
The molecule 37 was immobilized on a sepharose resin activated by an N-hydroxysuccinimide (NHS) group (GE Healthcare #17-0906-01) as follows: 100 μg of the molecule 37 per ml of NHS Sepharose in PBS, pH 8.3, for 1 hour at ambient temperature. The sepharose coupled with molecule 37 was designated “compound 6” resin, whereas in parallel, another “control” resin was produced with incubation in 0.5 M Monoethanolamine (MEA), pH 8.3, under the same conditions, in order to neutralize the NHS functions. After several washings with PBS, pH 8.3, the NHS functions remaining free were blocked with 0.5 M MEA for 30 minutes. Once they had been thoroughly washed with PBS, the “control” and “compound 6” resins were incubated with 1 ml of Xenopus egg extracts diluted 1:1 in CSF-XB buffer containing protease inhibitors (#1 873 580 Roche®), for 1 hour under stirring at 4° C. After 2 washings with PBST, the proteins of the extract remaining attached were eluted with 100 μl of electrophoresis SDS charge buffer (Laemmli, U.K., Cleavage of structural proteins during the assembly of the head of bacteriophage T4. Nature 1970; 227, 680-685) enriched with 6M urea. […]

PP1α (PP1CA) = molecular target: T1, PP1α (PP1CA) (Oryctolagus cuniculus, UniProt P62139); assay: Protein phosphatase test (PP1 activity, DiFMUP fluorescent substrate); type: biochemical; conditions: PP1CA at 80 mU, fluorescent substrate (50 μM), molecules from 50 μM to 50 nM; read-out: PP1 Inhibition IC50
T1 construct: purchased New England Biolabs P0754
T1 sequence (P62139 whole entry): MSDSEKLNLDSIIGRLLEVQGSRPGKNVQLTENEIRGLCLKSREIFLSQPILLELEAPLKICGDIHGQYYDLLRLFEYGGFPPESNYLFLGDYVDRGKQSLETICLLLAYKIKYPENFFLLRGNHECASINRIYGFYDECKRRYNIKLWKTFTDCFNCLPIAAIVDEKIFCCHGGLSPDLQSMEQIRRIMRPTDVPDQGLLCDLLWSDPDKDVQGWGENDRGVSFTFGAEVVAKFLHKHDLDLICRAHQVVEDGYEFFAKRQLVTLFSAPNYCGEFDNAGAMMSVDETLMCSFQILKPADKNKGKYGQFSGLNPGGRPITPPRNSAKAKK
Outline: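 PP1α (30 or 80 mU) in 100 mM Tris-HCl pH 7.5, 4 mM DTT, 0.2 mM EDTA, 0.5 mM MnCl2 was preincubated 15 min with compound (50 μM to 50 nM), then given 60 μM DiFMUP for 20 min at 37 °C. Phosphatase activity was read as fluorescence at 355-460 nm, three times in duplicate.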

bovine brain tubulin = assay: In vitro tubulin polymerization test (turbidimetry at 350 nm); type: biochemical; conditions: molecules at 50 μM, calculated at t=3000 s, DMSO control = 100%
Outline: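 Bovine brain tubulin was assembled at 37 °C in BRB80 (80 mM K-PIPES pH 6.8, 1 mM MgCl2, 1 mM EGTA) with 1 mM GTP. The 50 μM tests used compounds at 50 μM, run in triplicate. Turbidity at 350 nm was read at t=3000 s and expressed relative to control taken as 100%.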

HeLa cells [1] = assay: Indirect immunofluorescence: effect on HeLa cells (mitotic arrest, microtubule depolymerization); type: cell-based, human; set-up: key to Effect on Hela at 25 μM / Effect on Hela at 100 μM / Effect on Hela at 50 and 100 μM / Effect on Hela at 50 μM: —: −: no activity on the cells at 25 μM (if there is an effect at high concentrations, this is specified in the table).; *: weak activity (MA and/or slight depolymerization of the MTs and/or slight inhibition of proliferation),; **: average activity (MA and/or moderate depolymerization of the MTs and/or moderate inhibition of proliferation),; ***: strong activity (MA and/or pronounced depolymerization of the MTs and/or pronounced inhibition of proliferation),; ****: very strong activity (MA and/or very pronounced depolymerization of the MTs and/or strong inhibition of proliferation); conditions: 24 hours; for Effect on Hela at 25 μM: mitotic index and/or depolymerization of the MTs
Outline: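 HeLa cells exposed 24 h to compound (100 μM to 50 nM; primary series 1–10 μM), DMSO controls. PFA/glutaraldehyde-fixed cells immunostained for α-tubulin, actin (phalloidin) and DNA (Hoechst); fluorescence microscopy scored phenotypes and mitotic index, with mitotic index and/or MT depolymerization evaluated at 25 μM.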

HMEC cells = assay: Proliferation of HMEC cells (GI50); type: cell-based; conditions: Homo sapiens, 120 h, 50 μM to 1 nM for 5 days
Outline: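 Cells seeded at 1,000/well (10% confluence) and exposed 5 days (120 h) to compound from 1 nM up to 50–100 μM. Live cells counted by Hoechst 33342 staining under fluorescence microscopy; GI50 is concentration halving proliferation versus control, mean of two triplicate experiments.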

HeLa cells [2] = assay: Comparative tests with INH2BP: antiproliferative activity; type: cell-based, human; conditions: 50 μM
Experimental: The cells were seeded in 96-well plates (1,000 per well) and incubated with different concentrations of compound 6 (1 nM to 100 μM), for 5 days (120 hours). At the end of this incubation, Hoechst 33342 (1 μg/ml) was added to the culture medium and the live cells were counted under a fluorescence microscope (Zeiss Axiovert 200M). The data represents the average of two independent experiments during which 10 fields chosen at random were analyzed for each concentration of compound 6, themselves produced in triplicate.

[3] = trials discontinued; cited from earlier work
[4] = due to its structural instability; cited from earlier work
PP1 and PP2A = conditions: cited from earlier work

IC50 (PP1α (PP1CA)) [µM]	Compound	Tubulin polymerization inhibition (bovine brain tubulin)	Effect on Hela at 25 μM (HeLa cells [1])	GI50 (HMEC cells) [µM]	selectivity for PP1 relative to PP2A (PP1 and PP2A) [times]	also measured
> 50	COc1ccc2c([N+](=O)[O-])c(-c3ccc(OCCOCCOCCOCCN)cc3)[nH]c(=O)c2c1 [Compound 37, 3-(4-(2-(2-(2-(2-Aminoethoxy)ethoxy)ethoxy)ethoxy)phenyl)-7-methoxy-4-nitroisoquinolin-1(2H)-one]	— ((−) signifies that the molecule induces little or no tubulin assembly inhibition in vitro: 0+ or − −5% of the DMSO control.)	—	25 to 50		retention of PP1C by compound immobilized on sepharose resin (PP1C): specifically retains PP1C
> 50	COC(=O)c1nnn(-c2c(-c3ccc(OC)cc3)[nH]c(=O)c3cc(OC)ccc23)c1C(=O)OC [Compound 48, Dimethyl 1-[7-methoxy-3-(4-methoxyphenyl)-1-oxo-1,2-dihydroisoquinolin-4-yl]-1H-[1,2,3]triazole-4,5-dicarboxylate]	— ((−) signifies that the molecule induces little or no tubulin assembly inhibition in vitro: 0+ or − −5% of the DMSO control.)	—	25 to 50		melting point: 220 °C; Effect on Hela at 50 μM (HeLa cells [1]; 50 μM): *
> 50	COc1ccc(-c2[nH]c(=O)c3cc(OC)ccc3c2N2CCOCC2)cc1 [Compound 49, 7-Methoxy-3-(4-methoxyphenyl)-4-morpholinoisoquinolin-1(2H)-one]	+ ((+) signifies that the molecule induces tubulin assembly inhibition in vitro comprised between 6 and 25% of the DMSO control.)	**	0.1 to 1		melting point: 139 °C
	Nc1ccc2oc(=O)ccc2c1I [INH2BP, 5-iodo-6-amino-1,2-benzopyrone]					antiproliferative activity on HeLa cells (HeLa cells [2]): no antiproliferative activity
	C[C@@]12C(=O)OC(=O)[C@]1(C)[C@H]1CC[C@@H]2O1 [cantharidin]					toxicity in clinical trials [3]: too-high nephrotoxicity
	C[C@@](O)(/C=C/[C@H]1CC=CC(=O)O1)[C@@H](C[C@@H](O)\C=C/C=C\C=C\CO)OP(=O)(O)O [fostriecin]					activity in phase I clinical trial [4]: inactive; selectivity for PP2A (PP1 and PP2A; PP2A relative to PP1): 40,000 times
	CO[C@H]([C@H](O)CC(=O)[C@@H](C)[C@@H](O)CC[C@@H](C)[C@@H]1O[C@]2(CC[C@@H](C)[C@H](CC[C@H](C)C(C)=O)O2)CC[C@@H]1C)[C@H](OC(=O)C[C@@H](O)C1=C(C)C(=O)OC1=O)C(C)C [tautomycin]				4	
	Phosphatidic acid				100	
	tautomycetin				40	
